Data as given in patent US8535903B2, “Nitroreductase enzymatic substrates” (BioMerieux, S.A., priority 2009, dated 2013).

How the values were obtained:
Assay in all cases: Detection of nitroreductase activity on Columbia medium with substrate
Type in all cases: cell-based
Details in all cases: 24 hours at 37° C.
[1] = tested on: Bacillus subtilis NCTC 9 372; set-up: key to Growth: NG: no growth; 0.5: low growth; 1: moderate growth; 2: good growth; key to Col. (color of the colonies) / Fluo. (fluorescence of the colonies): —: no color/fluorescence
Procedure: (§1) 40 mg of substrate were dissolved in 4 ml of dimethylsulfoxide and added to 400 ml of previously autoclaved Columbia medium. The medium was distributed in Petri dishes 90 mm in diameter at the rate of 20 ml per dish. Seventeen strains of microorganisms obtained from collections and belonging to various species of bacteria and yeasts are inoculated as spots of about 10 000 colony forming units. The media are incubated for 24 hours at 37° C. and then the colonies formed are examined visually and under a UV lamp at 365 nm.

[2] = tested on: Candida albicans ATCC 90 028; set-up: key to Growth: NG: no growth; 0.5: low growth; 1: moderate growth; 2: good growth; key to Col. (color of the colonies) / Fluo. (fluorescence of the colonies): —: no color/fluorescence
Procedure: as §1

[3] = tested on: Candida glabrata NCPF 3 943; set-up: key to Growth: NG: no growth; 0.5: low growth; 1: moderate growth; 2: good growth; key to Col. (color of the colonies) / Fluo. (fluorescence of the colonies): —: no color/fluorescence
Procedure: as §1

[4] = tested on: Enterococcus faecalis NCTC 775; set-up: key to Growth: NG: no growth; 0.5: low growth; 1: moderate growth; 2: good growth; key to Col. (color of the colonies) / Fluo. (fluorescence of the colonies): —: no color/fluorescence
Procedure: as §1

[5] = tested on: Enterococcus faecium NCTC 7 171; set-up: key to Growth: NG: no growth; 0.5: low growth; 1: moderate growth; 2: good growth; key to Col. (color of the colonies) / Fluo. (fluorescence of the colonies): —: no color/fluorescence
Procedure: as §1

[6] = tested on: Listeria monocytogenes NCTC 11 994; set-up: key to Growth: NG: no growth; 0.5: low growth; 1: moderate growth; 2: good growth; key to Col. (color of the colonies) / Fluo. (fluorescence of the colonies): —: no color/fluorescence
Procedure: as §1

[7] = tested on: Pseudomonas aeruginosa NCTC 10 662; set-up: key to Growth: NG: no growth; 0.5: low growth; 1: moderate growth; 2: good growth; key to Col. (color of the colonies) / Fluo. (fluorescence of the colonies): —: no color/fluorescence
Procedure: as §1

[8] = tested on: Salmonella typhimurium NCTC 74; set-up: key to Growth: NG: no growth; 0.5: low growth; 1: moderate growth; 2: good growth; key to Col. (color of the colonies) / Fluo. (fluorescence of the colonies): —: no color/fluorescence
Procedure: as §1

[9] = tested on: Staphylococcus aureus NCTC 11 939; set-up: key to Growth: NG: no growth; 0.5: low growth; 1: moderate growth; 2: good growth; key to Col. (color of the colonies) / Fluo. (fluorescence of the colonies): —: no color/fluorescence
Procedure: as §1

[10] = tested on: Staphylococcus aureus NCTC 6 571; set-up: key to Growth: NG: no growth; 0.5: low growth; 1: moderate growth; 2: good growth; key to Col. (color of the colonies) / Fluo. (fluorescence of the colonies): —: no color/fluorescence
Procedure: as §1

[11] = tested on: Staphylococcus epidermidis NCTC 11 047; set-up: key to Growth: NG: no growth; 0.5: low growth; 1: moderate growth; 2: good growth; key to Col. (color of the colonies) / Fluo. (fluorescence of the colonies): —: no color/fluorescence
Procedure: as §1

[12] = tested on: Streptococcus pyogenes NCTC 8 306; set-up: key to Growth: NG: no growth; 0.5: low growth; 1: moderate growth; 2: good growth; key to Col. (color of the colonies) / Fluo. (fluorescence of the colonies): —: no color/fluorescence
Procedure: as §1

[13] = tested on: Yersinia enterocolitica NCTC 11 176; set-up: key to Growth: NG: no growth; 0.5: low growth; 1: moderate growth; 2: good growth; key to Col. (color of the colonies) / Fluo. (fluorescence of the colonies): —: no color/fluorescence
Procedure: as §1

[14] = tested on: Enterobacter cloacae NCTC 11 936; set-up: key to Growth: NG: no growth; 0.5: low growth; 1: moderate growth; 2: good growth; key to Col. (color of the colonies): —: no color/fluorescence
Procedure: as §1

[15] = tested on: Escherichia coli NCTC 10 418; set-up: key to Growth: NG: no growth; 0.5: low growth; 1: moderate growth; 2: good growth; key to Col. (color of the colonies): —: no color/fluorescence
Procedure: as §1

[16] = tested on: Providencia rettgeri NCTC 7 475; set-up: key to Growth: NG: no growth; 0.5: low growth; 1: moderate growth; 2: good growth; key to Col. (color of the colonies): —: no color/fluorescence
Procedure: as §1

[17] = tested on: Serratia marcescens NCTC 10 211; set-up: key to Growth: NG: no growth; 0.5: low growth; 1: moderate growth; 2: good growth; key to Col. (color of the colonies): —: no color/fluorescence
Procedure: as §1

[18] = 40 mg substrate in 400 ml Columbia medium

Growth [1, 18]: NG | Fluo. (fluorescence of the colonies) ([1]; UV lamp at 365 nm): — | Col. (color of the colonies) ([1]; examined visually): — | Growth [4, 18]: 1 | Fluo. (fluorescence of the colonies) ([4]; UV lamp at 365 nm): — | Col. (color of the colonies) ([4]; examined visually): — | Growth [5, 18]: 1 | Fluo. (fluorescence of the colonies) ([5]; UV lamp at 365 nm): — | Col. (color of the colonies) ([5]; examined visually): — | Growth [6, 18]: 1 | Fluo. (fluorescence of the colonies) ([6]; UV lamp at 365 nm): — | Col. (color of the colonies) ([6]; examined visually): — | Growth [7, 18]: 2 | Fluo. (fluorescence of the colonies) ([7]; UV lamp at 365 nm): — | Col. (color of the colonies) ([7]; examined visually): — | Growth [8, 18]: 0.5 | Fluo. (fluorescence of the colonies) ([8]; UV lamp at 365 nm): — | Col. (color of the colonies) ([8]; examined visually): — | Growth [12, 18]: 1 | Fluo. (fluorescence of the colonies) ([12]; UV lamp at 365 nm): — | Col. (color of the colonies) ([12]; examined visually): — | Growth [14, 18]: 2 | Fluo. (fluorescence of the colonies) ([14]; UV lamp at 365 nm): Yellow | Col. (color of the colonies) ([14]; examined visually): — | Growth [17, 18]: 2 | Fluo. (fluorescence of the colonies) ([17]; UV lamp at 365 nm): Yellow | Col. (color of the colonies) ([17]; examined visually): —
Compound: O=[N+]([O-])c1ccc(C=Cc2ccncc2)cc1 [4NSP, 4,4′-Nitrostyrylpyridine]
Growth [2, 18]: NG | Fluo. (fluorescence of the colonies) ([2]; UV lamp at 365 nm): — | Col. (color of the colonies) ([2]; examined visually): — | Growth [3, 18]: 1 | Fluo. (fluorescence of the colonies) ([3]; UV lamp at 365 nm): — | Col. (color of the colonies) ([3]; examined visually): — | Growth [9, 18]: 1 | Fluo. (fluorescence of the colonies) ([9]; UV lamp at 365 nm): — | Col. (color of the colonies) ([9]; examined visually): — | Growth [10, 18]: 1 | Fluo. (fluorescence of the colonies) ([10]; UV lamp at 365 nm): — | Col. (color of the colonies) ([10]; examined visually): — | Growth [11, 18]: 0.5 | Fluo. (fluorescence of the colonies) ([11]; UV lamp at 365 nm): — | Col. (color of the colonies) ([11]; examined visually): — | Growth [13, 18]: 2 | Fluo. (fluorescence of the colonies) ([13]; UV lamp at 365 nm): — | Col. (color of the colonies) ([13]; examined visually): — | Growth [15, 18]: 2 | Fluo. (fluorescence of the colonies) ([15]; UV lamp at 365 nm): Yellow | Col. (color of the colonies) ([15]; examined visually): — | Growth [16, 18]: 2 | Fluo. (fluorescence of the colonies) ([16]; UV lamp at 365 nm): Pale yellow | Col. (color of the colonies) ([16]; examined visually): —
